ChEMBL document CHEMBL1136488, “Antibacterial and antiproliferative activity of cationic fullerene derivatives” (2003)
≈ marks a conversion by molar mass, not a printed value.

What was measured:
Enterococcus faecalis [1] = assay: Antibacterial activity against vancomycin resistant Enterococcus faecalis NCTC 12201 (VRE); assay type: functional
Enterococcus hirae = assay: Antibacterial activity against Enterococcus hirae ATCC 8043; assay type: functional
Staphylococcus aureus [2] = assay: Antibacterial activity against Staphylococcus aureus 209P JC-1; assay type: functional
Staphylococcus aureus [3] = assay: Antibacterial activity against […] resistant Staphylococcus aureus M126 (MRSA); assay type: functional
Enterococcus faecalis [4] = assay: Antibacterial activity against Enterococcus faecalis W-73; assay type: functional
[5] = test system: Staphylococcus epidermidis; assay: Antibacterial activity against Staphylococcus epidermidis ATCC 14990; assay type: functional
Staphylococcus aureus [6] = assay: Antibacterial activity against […] resistant Staphylococcus aureus M133 (MRSA); assay type: functional
Enterococcus faecium = assay: Antibacterial activity against vancomycin resistant Enterococcus faecium vanA (VRE); assay type: functional
Enterococcus faecalis [7] = assay: Antibacterial activity against Enterococcus faecalis W-73

`C[N+]1(C)CC23c4c5c6c7c8c9c%10c%11c%12c%13c%14c%15c%16c%17c%18c%19c%20c(c2c2c4c4c6c6c8c%10c8c%12c%10c%14c(c%15%19)c%12c%20c2c2c4c6c8c%10c%122)C%18C2c4c6c8c%10c(c4-%17)C%16C%13C%114C[N+](C)(C)CC%104C=9C8C7C5=C6C23C1.[I-].[I-]` (centres undefined) gave an MIC (Enterococcus faecalis [1]) of 3.12 µg/mL, an MIC (Enterococcus hirae) of 6.25 µg/mL and an MIC (Staphylococcus aureus [2]) of 0.78 µg/mL. The MIC (Staphylococcus aureus [3]) was 1.56 µg/mL, the MIC (Enterococcus faecalis [4]) was 6.25 µg/mL and the MIC [5] was 3.12 µg/mL. For the same molecule, the MIC (Staphylococcus aureus [6]) was 1.56 µg/mL and the MIC (Enterococcus faecium) was 6.25 µg/mL.
`CCCCC1C23C4=c5c6c7c8c9c%10c%11c%12c%13c%14c%15c%16c%17c%18c%19c%20c%21c%22c%23c(c5c5c6c6c8c%11c8c%11c%12c%15c%12c(c%20%16)c%21c%15c%23c5c(c68)c%15c%12%11)C2(C[N+]1(C)C)C%22C%19c1c-%18c2c5c(c13)C4C7C9=C5C1(C2C%17%14)C(CCCC)[N+](C)(C)CC%10%131.[I-].[I-]` (centres undefined) showed an MIC (Enterococcus faecalis [1]) of 6.25 µg/mL, an MIC (Enterococcus hirae) of 6.25 µg/mL and an MIC (Staphylococcus aureus [2]) of 6.25 µg/mL. The MIC (Staphylococcus aureus [3]) was 6.25 µg/mL, the MIC (Enterococcus faecalis [4]) was 6.25 µg/mL and the MIC [5] was 6.25 µg/mL. It also gave an MIC (Staphylococcus aureus [6]) of 6.25 µg/mL and an MIC (Enterococcus faecium) of 12.5 µg/mL.
Molecule `C[N+]1(C)CC23C4=C5C6=C7C8C9=c%10c%11c%12c%13c%14c%15c%16c%17c%18c%19c%20c%21c%22c%23c(c4c4c2c2c%24c%25c(c%10c(c%11%15)c%10c%16c%19c(c%25%10)c%10c%20c%23c4c%24%10)C2C9C73C1)C1C%22=C2c3c(c6c(c-%13c3C(C%14%17)C23C[N+](C)(C)CC%21%183)C%128)C51.[I-].[I-]` (centres undefined) has an MIC (Enterococcus faecalis [1]) of 12.5 µg/mL, an MIC (Enterococcus hirae) of 12.5 µg/mL and an MIC (Staphylococcus aureus [2]) of 1.56 µg/mL. It also gave an MIC (Staphylococcus aureus [3]) of 3.12 µg/mL, an MIC (Enterococcus faecalis [4]) of 12.5 µg/mL and an MIC [5] of 6.25 µg/mL. For the same molecule, the MIC (Staphylococcus aureus [6]) was 0.78 µg/mL and the MIC (Enterococcus faecium) was 12.5 µg/mL.
For `CCCCCCCCCC1C23C4=C5c6c7c8c9c(c%10c%11c%12c%13c%14c%15c%16c%17c%18c%19c%20c%21c%22c%23c%24c(c6c6c8c8c%25c9c%11c%14c%25c9c%15c%18c%11c(c%23%19)c%24c6c8c%119)C5C%22c5c4c4c6c(c5-%21)C(C%20%17)C5(C6=C%12C%10C42)C(CCCCCCCCC)[N+](C)(C)CC%13%165)C73C[N+]1(C)C.[I-].[I-]` (centres undefined), the MIC (Enterococcus faecalis [1]) was over 100 µg/mL, the MIC (Enterococcus hirae) was over 100 µg/mL and the MIC (Staphylococcus aureus [2]) was over 100 µg/mL. It also gave an MIC (Enterococcus faecalis [4]) of over 100 µg/mL, an MIC [5] of over 100 µg/mL and an MIC (Enterococcus faecium) of over 100 µg/mL.
For `C[N+]1(C)CC23c4c5c6c7c8c9c%10c%11c%12c%13c%14c%15c%16c%17c%18c%19c%20c%21c(c2c2c4c4c6c9c6c4c4c2c%21c2c%19c(c%18%14)c9c%13c%10c6c9c24)C2=C4c6c(c-%16c9c%10c6C(C5C7=C%10C5(C[N+](C)(C)CC8%115)C9C%15%12)C43C1)C%17C2%20.[I-].[I-]` (centres undefined), the MIC (Enterococcus faecalis [1]) was 6.25 µg/mL, the MIC (Enterococcus hirae) was 6.25 µg/mL and the MIC (Staphylococcus aureus [2]) was 3.12 µg/mL. It also gave an MIC (Staphylococcus aureus [3]) of 3.12 µg/mL, an MIC (Enterococcus faecalis [4]) of 6.25 µg/mL and an MIC [5] of 3.12 µg/mL. For the same molecule, the MIC (Staphylococcus aureus [6]) was 3.12 µg/mL and the MIC (Enterococcus faecium) was 6.25 µg/mL.
`CCCCCCC1C23C4=c5c6c7c8c9c%10c%11c%12c%13c%14c%15c%16c%17c%18c%19c%20c%21c%22c%23c(c5c5c6c6c8c%11c8c%11c%12c%15c%12c(c%20%16)c%21c%15c%23c5c(c68)c%15c%12%11)C2(C[N+]1(C)C)C%22C%19c1c-%18c2c5c(c13)C4C7C9=C5C1(C2C%17%14)C(CCCCCC)[N+](C)(C)CC%10%131.[I-].[I-]` (centres undefined) gave an MIC (Enterococcus faecalis [1]) of 25 µg/mL, an MIC (Enterococcus hirae) of 25 µg/mL and an MIC (Staphylococcus aureus [2]) of 6.25 µg/mL. The MIC (Staphylococcus aureus [3]) was 12.5 µg/mL, the MIC [5] was 12.5 µg/mL and the MIC (Staphylococcus aureus [6]) was 12.5 µg/mL. For the same molecule, the MIC (Enterococcus faecium) was 12.5 µg/mL and the MIC (Enterococcus faecalis [7]) was 50 µg/mL.
In the case of `CN[C@H](CC(C)C)C(=O)N[C@H]1C(=O)N[C@@H](CC(N)=O)C(=O)N[C@H]2C(=O)N[C@H]3C(=O)N[C@H](C(=O)N[C@H](C(=O)O)c4cc(O)cc(O)c4-c4cc3ccc4O)[C@H](O)c3ccc(c(Cl)c3)Oc3cc2cc(c3O[C@@H]2O[C@H](CO)[C@@H](O)[C@H](O)[C@H]2O[C@H]2C[C@](C)(N)[C@H](O)[C@H](C)O2)Oc2ccc(cc2Cl)[C@H]1O` [VANCOMYCIN], the MIC (Enterococcus faecalis [1]) is reported as over 100 µg/mL, the MIC (Enterococcus hirae) is reported as 3.12 µg/mL (≈ 2.15 µM) and the MIC (Staphylococcus aureus [2]) is reported as 1.56 µg/mL (≈ 1.08 µM). The MIC (Staphylococcus aureus [3]) was 1.56 µg/mL (≈ 1.08 µM), the MIC (Enterococcus faecalis [4]) was 3.12 µg/mL (≈ 2.15 µM) and the MIC [5] was 3.12 µg/mL (≈ 2.15 µM). It also gave an MIC (Staphylococcus aureus [6]) of 1.56 µg/mL (≈ 1.08 µM) and an MIC (Enterococcus faecium) of over 100 µg/mL.
